Literature values as cited in patent publication US11167054B2, “Activated disinfectant hydrogen peroxide compositions” (LONZA, LLC, priority 2014, dated 2021).
Like-named read-outs stand apart in the source and are kept apart here.

What was measured:
[1] = 6 wt. % hydrogen peroxide solution, 5 minutes contact time
[2] = 6000 ppm (0.6 wt. %) hydrogen peroxide solution, 5 minute contact time

OO [hydrogen peroxide]
Log reduction against Staphylococcus Aureus (Staphylococcus Aureus; [1]): ~3 Log | log reduction against Staphylococcus Aureus (Staphylococcus Aureus; [2]): ~1 log | Log reduction against Pseudomonas Aeruginosa (Pseudomonas Aeruginosa; [1]): < 2 Log | Log reduction against Pseudomonas Aeruginosa (Pseudomonas Aeruginosa; [2]): < 1 Log
